Experimental data from PubChem BioAssay (NCI).
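Test compounds were applied to cells in 96-well plates for 48 hours at 5 doses. GI50 marks 50% less growth. Definition used: TGI = concentration required for complete inhibition of growth.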

How the values were obtained:
Assay in all cases: DTP human tumour cell line panel, 48 h
COLO 205 colon = system: COLO 205 colon
HS 578T breast = system: HS 578T breast
HT29 colon = system: HT29 colon
MDA-MB-231 breast = system: MDA-MB-231 breast
NCI-H23 lung = system: NCI-H23 lung
NCI/ADR-RES ovarian = system: NCI/ADR-RES ovarian
OVCAR-4 ovarian = system: OVCAR-4 ovarian
PC-3 prostate = system: PC-3 prostate
SF-539 CNS = system: SF-539 CNS
SNB-19 CNS = system: SNB-19 CNS

| Structure (SMILES) | GI50 (COLO 205 colon) | GI50 (HS 578T breast) | TGI (HS 578T breast) | GI50 (HT29 colon) | TGI (HT29 colon) | GI50 (MDA-MB-231 breast) | TGI (MDA-MB-231 breast) | GI50 (NCI-H23 lung) | TGI (NCI-H23 lung) | GI50 (NCI/ADR-RES ovarian) | TGI (NCI/ADR-RES ovarian) | GI50 (OVCAR-4 ovarian) | TGI (OVCAR-4 ovarian) | GI50 (PC-3 prostate) | GI50 (SF-539 CNS) | TGI (SF-539 CNS) | GI50 (SNB-19 CNS) | TGI (SNB-19 CNS) | TGI (COLO 205 colon) | TGI (PC-3 prostate) |
| --- | --- | --- | --- | --- | --- | --- | --- | --- | --- | --- | --- | --- | --- | --- | --- | --- | --- | --- | --- | --- |
| C[C@@H]1CC[C@H]2C(COC/C=C/COCC3=C(C(F)(F)F)O[C@@H]4O[C@@]5(C)CC[C@H]6[C@H](C)CC[C@@H]3[C@@]46OO5)=C(C(F)(F)F)O[C@@H]3O[C@@]4(C)CC[C@@H]1[C@]32OO4 | < 0.0174 µM | 0.0429 µM | > 100 µM | 0.0169 µM | > 100 µM | < 0.0416 µM | 0.865 µM | < 0.0178 µM | 12.3 µM | 3.14 µM | > 71.3 µM | 0.518 µM | > 100 µM | < 0.01 µM | < 0.0242 µM | > 21.4 µM | 0.542 µM | > 100 µM |  |  |
| CC(C)(C)C1CCC2(CC1)CCN(CCCN1CCOCC1)CC2 |  |  | > 100 µM |  | > 34.2 µM |  | > 100 µM |  | > 100 µM |  | > 100 µM |  | > 100 µM |  |  | > 51.1 µM |  | > 100 µM | 32.7 µM | > 100 µM |
| Cn1cnc([N+](=O)[O-])c1SCC(=O)O |  |  | > 100 µM |  | > 100 µM |  | > 100 µM |  | > 100 µM |  | > 100 µM |  | > 100 µM |  |  |  |  | > 100 µM | > 100 µM | > 100 µM |
| COc1cc2ccc1-c1cc(ccc1O)CC1c3cc4c(cc3CCN1C)Oc1c(OC)cc3c(c1O4)C(C2)N(C)CC3 (configuration not stated) |  |  |  |  | 3.27 µM |  |  |  | 3.9 µM |  |  |  | 3.72 µM |  |  | 3.27 µM |  | 4.28 µM |  |  |
| CC(C)CNc1nc(N)[nH]c(=O)c1NC=O |  |  | > 100 µM |  | > 100 µM |  | > 100 µM |  | > 100 µM |  | > 100 µM |  | > 100 µM |  |  | > 100 µM |  | > 100 µM | > 100 µM | > 100 µM |
| O=C(c1cc(Br)ccc1O)c1cc(Br)ccc1O |  |  | > 100 µM |  | 31.7 µM |  | 33.5 µM |  | 35.4 µM |  | 44.7 µM |  | 30.2 µM |  |  | 38.2 µM |  | 32.3 µM | 33.4 µM | 30.8 µM |
| Oc1cc(O)cc(/C=C/c2ccc(O)c(O)c2)c1 |  |  |  |  | 57 µM |  |  |  | 40.2 µM |  | 51 µM |  | > 100 µM |  |  | 22.9 µM |  | > 88.4 µM | > 62.1 µM |  |
| O=C(O)c1ccccn1 |  |  | > 100 µM |  | > 100 µM |  | > 100 µM |  | > 100 µM |  | > 100 µM |  | > 100 µM |  |  | > 100 µM |  | > 100 µM | > 100 µM | > 100 µM |
| CN(C)c1ccc(C2CC(=O)C(C#N)=C(c3ccccc3)NN2C)cc1 (configuration not stated) |  |  |  |  | 24.5 µM |  |  |  | > 100 µM |  |  |  | > 100 µM |  |  |  |  | > 100 µM |  |  |
| CN(C)[C@@H]1C(=O)C(C(=O)NCNCCCC(=O)O)=C(O)[C@@]2(O)C(=O)C3=C(O)c4c(O)cccc4[C@@](C)(O)[C@H]3C[C@@H]12 |  |  |  |  | > 100 µM |  |  |  | > 100 µM |  |  |  | > 100 µM |  |  | > 100 µM |  | > 100 µM | > 100 µM |  |
| N=C(N)c1ccc(-c2ccc(-c3ccc(Cl)cn3)s2)cc1 |  | 2.05 µM | 5.35 µM |  |  | 1.58 µM | 3.02 µM |  |  |  |  |  |  | 1.65 µM | 1.63 µM | 3.01 µM |  |  |  | 3.17 µM |
| CN(C)c1ccc2nc3c(C(=O)O)cc(=O)c(O)c-3oc2c1 |  |  | > 100 µM |  | > 100 µM |  | > 100 µM |  | 33.6 µM |  | 85.7 µM |  | > 100 µM |  |  | 69.3 µM |  | 89.8 µM | 60 µM | > 100 µM |
| Cc1ccc(C)c(/C(=N\N=C(N)N)C2CC2)c1 |  |  | > 100 µM |  | > 100 µM |  | > 100 µM |  | 66.7 µM |  | > 100 µM |  | > 100 µM |  |  | 75 µM |  | > 100 µM | > 100 µM | > 100 µM |
| c1ccc2c[n+](CCCCCCCCCC[n+]3ccc4ccccc4c3)ccc2c1 |  |  | > 10 µM |  | > 10 µM |  | > 10 µM |  | > 10 µM |  | > 10 µM |  | > 10 µM |  |  | > 10 µM |  | > 10 µM | > 10 µM | > 10 µM |
| CCN(CC)Cc1ccc2cccnc2c1O |  |  | > 100 µM |  | 12.8 µM |  | > 100 µM |  | > 100 µM |  | 2.1 µM |  | > 100 µM |  |  | 20.7 µM |  | > 100 µM | 42 µM | > 100 µM |
| NCS(=O)(=O)O |  |  | > 100 µM |  | > 100 µM |  | > 100 µM |  | > 100 µM |  | > 100 µM |  | > 100 µM |  |  | 52.6 µM |  | > 100 µM | > 100 µM | > 100 µM |
| Cc1c2ccnc(-c3ccccc3)c2cc2c1[nH]c1ccccc12 |  |  |  |  | 8.14 µM |  |  |  | 19.9 µM |  | 6.36 µM |  | 32.7 µM |  |  | 7 µM |  | 17.9 µM | 6.1 µM |  |
| Cc1ncc(CO)c(CN)c1O |  |  | > 100 µM |  | > 100 µM |  | > 100 µM |  | > 100 µM |  | > 100 µM |  | > 100 µM |  |  | > 100 µM |  | > 100 µM | > 100 µM | > 100 µM |
| COc1ccc(CNc2nc(NCc3ccc(OC)cc3)nc(NC(C)C)n2)cc1 |  |  | > 100 µM |  | > 100 µM |  |  |  | 30.8 µM |  | 18.9 µM |  | > 100 µM |  |  | 27.3 µM |  | > 100 µM | 33.9 µM | 23.9 µM |
| O=C(CC1(O)C(=O)Nc2ccc(Br)cc21)c1ccc(C(=O)NCC2CCC3(CC2)OOC2(CCCCC2)OO3)cc1 (configuration not stated) | 3.74 µM | 9.26 µM | > 100 µM | 4.96 µM | 23 µM | 5.96 µM | 37.1 µM | 6.43 µM | 32 µM | 15.1 µM | 69.3 µM | 6.93 µM | 72.3 µM | 2.64 µM | 3.9 µM | 17.6 µM | 10.5 µM | 38.7 µM | 25.5 µM | 22.3 µM |
| CC[C@H](Nc1nc(N)nc(N)c1Cl)c1nc2cccc(NCc3ccc(C(=O)NO)cc3)c2c(=O)n1-c1ccccc1 | 2.24 µM | 2.62 µM | 10.9 µM | 2.01 µM | 5.27 µM | 1.55 µM | 3.65 µM |  |  | 12.4 µM | > 100 µM |  |  | 1.53 µM | 1.64 µM | 3.06 µM | 1.7 µM | 4.18 µM | 5.73 µM | 3.7 µM |
| COc1cnc2c(c1)C(=O)c1c-2n(CCCN2CCNCC2)c(=O)c2cc(Cl)ccc12 | 0.783 µM |  |  | 0.66 µM | 2.21 µM |  |  |  |  |  |  | 1.17 µM | 2.73 µM |  | 1.33 µM | 2.63 µM |  |  | 2.41 µM |  |
| CCOC(=O)c1c2c(c(O)c3ccccc3c(O)n(-c3ccc(C)cc3)c1C)C(=O)C=CC2=O |  |  | 66 µM |  | 41.1 µM |  | 55.7 µM |  | 52 µM |  | 48.7 µM |  | 29.9 µM |  |  | 53.9 µM |  | > 100 µM | 48.5 µM | > 100 µM |
